From PMC11848821, “Acrolein-Mediated Conversion of Lysine to Electrophilic Heterocycles for Protein Diversification and Toxicity Profiling” (Journal of the American Chemical Society, 2025)

How the values were obtained:
Format in all cases: binding
[1] = target: T1, bovine serum albumin (BSA) (Bos taurus, UniProt P02769); test: in-gel fluorescence after thiol-FITC addition to the adduct; conditions: covalent; lysine adduct (FDP); 12 h
T1 construct: gene ALB; commercial native protein, mature

lysozyme chicken = target: T2, lysozyme chicken (Gallus gallus, UniProt P00698); test: intact protein MS and MS/MS; conditions: covalent; lysine adduct (FDP)
T2 construct: gene LYZ
T2 sequence (P00698 19-147): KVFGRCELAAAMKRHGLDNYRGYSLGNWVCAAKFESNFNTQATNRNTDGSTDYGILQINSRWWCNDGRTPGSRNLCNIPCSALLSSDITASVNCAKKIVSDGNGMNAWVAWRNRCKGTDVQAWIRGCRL

lysozyme human = target: T3, lysozyme human (Homo sapiens, UniProt P61626); test: intact protein MS and MS/MS; conditions: covalent; lysine adduct (FDP)
T3 construct: gene LYZ; commercial protein, mature
T3 sequence (P61626 19-148): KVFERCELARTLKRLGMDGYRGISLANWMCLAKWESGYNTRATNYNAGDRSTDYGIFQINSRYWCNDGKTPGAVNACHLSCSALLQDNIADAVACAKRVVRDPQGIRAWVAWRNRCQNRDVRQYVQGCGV

T1 sequence (P02769 25-607): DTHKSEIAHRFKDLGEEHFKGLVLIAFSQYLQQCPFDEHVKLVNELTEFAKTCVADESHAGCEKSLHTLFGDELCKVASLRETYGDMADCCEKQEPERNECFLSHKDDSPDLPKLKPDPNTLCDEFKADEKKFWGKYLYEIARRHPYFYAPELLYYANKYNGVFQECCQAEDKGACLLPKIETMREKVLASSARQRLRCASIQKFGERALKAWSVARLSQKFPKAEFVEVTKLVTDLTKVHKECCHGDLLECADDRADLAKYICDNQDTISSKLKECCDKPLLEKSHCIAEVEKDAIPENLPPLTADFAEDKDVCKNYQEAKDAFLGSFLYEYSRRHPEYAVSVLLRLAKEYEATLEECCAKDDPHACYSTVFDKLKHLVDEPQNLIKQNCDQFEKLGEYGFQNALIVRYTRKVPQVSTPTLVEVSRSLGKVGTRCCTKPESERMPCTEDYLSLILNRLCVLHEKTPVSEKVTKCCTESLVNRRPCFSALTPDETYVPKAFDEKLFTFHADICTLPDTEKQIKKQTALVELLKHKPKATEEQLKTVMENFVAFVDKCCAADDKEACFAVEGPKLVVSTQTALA

`C=CC=O` [acrolein] was tested, and the “in-gel fluorescence after thiol-FITC addition to the adduct” value [1] was “formation of FDP-lysine and labeling of Apo-transferrin, BSA, and myoglobin with FITC fluorophore”, the “intact protein MS and MS/MS” value (lysozyme chicken) was “ribonuclease A, lysozyme chicken, lysozyme human, β-lactoglobulin, and apo-Transferrin” and the “intact protein MS and MS/MS” value (lysozyme human) was “ribonuclease A, lysozyme chicken, lysozyme human, β-lactoglobulin, and apo-Transferrin”.
